Measured values as given in patent publication US10813554B2, “Medical imaging device and methods of use” (Lumicell, Inc., priority 2013, dated 2020).

Test: Emission intensity of fluorophores exposed to different excitation wavelengths
Type: physicochemical
Conditions: shift in excitation wavelength
From the text: FIGS. 10A and 10B present graphs of emission intensities for two separate fluorphores, mPlum and cy5, exposed to different excitation wavelengths. As shown in FIG. 10A the shift in excitation wavelength yielded a decrease in emission intensity of about 96% for fluorphore 1 which was mPlum.

| Compound | increase in emission intensity | decrease in emission intensity (FIG. 10A) |
| --- | --- | --- |
| CCN1/C(=C/C=C/C=C/C2=[N+](CCCCCC(=O)O)c3ccc(S(=O)(=O)O)cc3C2(C)C)C(C)(C)c2cc(S(=O)(=O)[O-])ccc21 [cy5] | about 156% | – |
| mPlum | – | about 96% |
